Results reported in PubChem BioAssay AID1919009 (Molecular Pharmacology Branch, DTP, NCI, 2023).

Tested on: K24384-001-R-PDC complex spheroid growth
Assay: Anticancer human tumor K24384-001-R-PDC patient-derived pancreatic adenocarcinoma cell line growth inhibition [AhR]
Conditions: for IC50: curve of first compound; for viability, T/C: stronger effect = lower value
Outline: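 Spheroids combined tumor cells with HUVEC endothelial cells and human MSCs as stroma. AhR antagonists were paired with standard or investigational drugs, each dosed in half-log steps down from near clinical Cmax, or from 10 microM where Cmax was unknown.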

[1] = second compound 0.1 µM, first compound 0.0316 µM
[2] = second compound 0.1 µM, first compound 0.1 µM
[3] = second compound 0.316 µM, first compound 0.0316 µM
[4] = second compound 0.316 µM, first compound 0.1 µM
[5] = second compound 1 µM, first compound 0.0316 µM
[6] = second compound 1 µM, first compound 0.1 µM
[7] = second compound 3.16 µM, first compound 0.0316 µM
[8] = second compound 3.16 µM, first compound 0.1 µM
[9] = second compound 10 µM, first compound 0.0316 µM
[10] = second compound 10 µM, first compound 0.1 µM
[11] = second compound 0.1 µM, first compound 0.00949 µM
[12] = second compound 0.1 µM, first compound 0.03 µM
[13] = second compound 0.1 µM, first compound 0.0949 µM
[14] = second compound 0.1 µM, first compound 0.3 µM
[15] = second compound 0.316 µM, first compound 0.00949 µM
[16] = second compound 0.316 µM, first compound 0.03 µM
[17] = second compound 0.316 µM, first compound 0.0949 µM
[18] = second compound 0.316 µM, first compound 0.3 µM
[19] = second compound 1 µM, first compound 0.00949 µM
[20] = second compound 1 µM, first compound 0.03 µM
[21] = second compound 1 µM, first compound 0.0949 µM
[22] = second compound 1 µM, first compound 0.3 µM
[23] = second compound 3.16 µM, first compound 0.00949 µM
[24] = second compound 3.16 µM, first compound 0.03 µM
[25] = second compound 3.16 µM, first compound 0.0949 µM
[26] = second compound 3.16 µM, first compound 0.3 µM
[27] = second compound 10 µM, first compound 0.00949 µM
[28] = second compound 10 µM, first compound 0.03 µM
[29] = second compound 10 µM, first compound 0.0949 µM
[30] = second compound 10 µM, first compound 0.3 µM
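Throughout, for viability, T/C: percent of DMSO vehicle-treated spheroid viability set as 100%.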

`CC1(C)CCC(CN2CCN(c3ccc(C(=O)NS(=O)(=O)c4ccc(NCC5CCOCC5)c([N+](=O)[O-])c4)c(Oc4cnc5[nH]ccc5c4)c3)CC2)=C(c2ccc(Cl)cc2)C1` + CC(CO)NC(=O)c1cc(-c2ccc(Cl)cc2)nn(-c2cnn(C)c2)c1=O was tested, and the IC50 (second compound 0.1 µM) was greater than 10 µM, the IC50 (second compound 0.316 µM) was greater than 10 µM and the IC50 (second compound 1 µM) was greater than 10 µM. For the same compound, the IC50 (second compound 3.16 µM) was 9 µM, the IC50 (second compound 10 µM) was greater than 10 µM and the viability, T/C [1] was 91.4%. It also gave a viability, T/C [2] of 115%, a viability, T/C (second compound 0.1 µM, first compound 0.316 µM) of 94.4% and a viability, T/C (second compound 0.1 µM, first compound 1 µM) of 88.3%. For the same compound, the viability, T/C (second compound 0.1 µM, first compound 3.16 µM) was 87.9%, the viability, T/C (second compound 0.1 µM, first compound 10 µM) was 50.5% and the viability, T/C [3] was 117%. The viability, T/C [4] was 124%, the viability, T/C (second compound 0.316 µM, first compound 0.316 µM) was 123% and the viability, T/C (second compound 0.316 µM, first compound 1 µM) was 101%. The viability, T/C (second compound 0.316 µM, first compound 3.16 µM) was 106%, the viability, T/C (second compound 0.316 µM, first compound 10 µM) was 49.9% and the viability, T/C [5] was 123%. It also gave a viability, T/C [6] of 139%, a viability, T/C (second compound 1 µM, first compound 0.316 µM) of 123% and a viability, T/C (second compound 1 µM, first compound 1 µM) of 115%. For the same compound, the viability, T/C (second compound 1 µM, first compound 3.16 µM) was 110%, the viability, T/C (second compound 1 µM, first compound 10 µM) was 51.7% and the viability, T/C [7] was 97.3%. It also gave a viability, T/C [8] of 112%, a viability, T/C (second compound 3.16 µM, first compound 0.316 µM) of 122% and a viability, T/C (second compound 3.16 µM, first compound 1 µM) of 110%. For the same compound, the viability, T/C (second compound 3.16 µM, first compound 3.16 µM) was 77.9%, the viability, T/C (second compound 3.16 µM, first compound 10 µM) was 47.2% and the viability, T/C [9] was 101%. For the same compound, the viability, T/C [10] was 114%, the viability, T/C (second compound 10 µM, first compound 0.316 µM) was 113% and the viability, T/C (second compound 10 µM, first compound 1 µM) was 110%. For the same compound, the viability, T/C (second compound 10 µM, first compound 3.16 µM) was 90.2% and the viability, T/C (second compound 10 µM, first compound 10 µM) was 53%.
With `CCN(c1cc(-c2ccc(CN3CCOCC3)cc2)cc(C(=O)NCc2c(C)cc(C)[nH]c2=O)c1C)C1CCOCC1` + CC(CO)NC(=O)c1cc(-c2ccc(Cl)cc2)nn(-c2cnn(C)c2)c1=O the IC50 (second compound 0.1 µM) was greater than 3 µM, the IC50 (second compound 0.316 µM) was greater than 3 µM and the IC50 (second compound 1 µM) was greater than 3 µM. The IC50 (second compound 3.16 µM) was greater than 3 µM, the IC50 (second compound 10 µM) was greater than 3 µM and the viability, T/C [11] was 119%. It also gave a viability, T/C [12] of 125%, a viability, T/C [13] of 122% and a viability, T/C [14] of 107%. The viability, T/C (second compound 0.1 µM, first compound 0.949 µM) was 95.4%, the viability, T/C (second compound 0.1 µM, first compound 3 µM) was 91.8% and the viability, T/C [15] was 117%. It also gave a viability, T/C [16] of 135%, a viability, T/C [17] of 125% and a viability, T/C [18] of 120%. The viability, T/C (second compound 0.316 µM, first compound 0.949 µM) was 98.2%, the viability, T/C (second compound 0.316 µM, first compound 3 µM) was 98.9% and the viability, T/C [19] was 107%. For the same compound, the viability, T/C [20] was 139%, the viability, T/C [21] was 154% and the viability, T/C [22] was 144%. The viability, T/C (second compound 1 µM, first compound 0.949 µM) was 102%, the viability, T/C (second compound 1 µM, first compound 3 µM) was 90.8% and the viability, T/C [23] was 122%. The viability, T/C [24] was 123%, the viability, T/C [25] was 113% and the viability, T/C [26] was 119%. The viability, T/C (second compound 3.16 µM, first compound 0.949 µM) was 113%, the viability, T/C (second compound 3.16 µM, first compound 3 µM) was 119% and the viability, T/C [27] was 117%. It also gave a viability, T/C [28] of 123%, a viability, T/C [29] of 118% and a viability, T/C [30] of 107%. It also gave a viability, T/C (second compound 10 µM, first compound 0.949 µM) of 99.4% and a viability, T/C (second compound 10 µM, first compound 3 µM) of 102%.
Compound `Cn1ncnc1C1c2n[nH]c(=O)c3cc(F)cc(c23)NC1c1ccc(F)cc1` (stereo not given) + CC(CO)NC(=O)c1cc(-c2ccc(Cl)cc2)nn(-c2cnn(C)c2)c1=O has an IC50 (second compound 0.1 µM) greater than 0.1 µM, an IC50 (second compound 0.316 µM) greater than 0.1 µM and an IC50 (second compound 1 µM) greater than 0.1 µM. The IC50 (second compound 3.16 µM) was greater than 0.1 µM, the IC50 (second compound 10 µM) was greater than 0.1 µM and the viability, T/C (second compound 0.1 µM, first compound 0.000316 µM) was 101%. It also gave a viability, T/C (second compound 0.1 µM, first compound 0.001 µM) of 99.9%, a viability, T/C (second compound 0.1 µM, first compound 0.00316 µM) of 94% and a viability, T/C (second compound 0.1 µM, first compound 0.01 µM) of 79.8%. The viability, T/C [1] was 82%, the viability, T/C [2] was 69.5% and the viability, T/C (second compound 0.316 µM, first compound 0.000316 µM) was 105%. It also gave a viability, T/C (second compound 0.316 µM, first compound 0.001 µM) of 108%, a viability, T/C (second compound 0.316 µM, first compound 0.00316 µM) of 90.4% and a viability, T/C (second compound 0.316 µM, first compound 0.01 µM) of 80.8%. It also gave a viability, T/C [3] of 74.7%, a viability, T/C [4] of 74.8% and a viability, T/C (second compound 1 µM, first compound 0.000316 µM) of 95%. The viability, T/C (second compound 1 µM, first compound 0.001 µM) was 105%, the viability, T/C (second compound 1 µM, first compound 0.00316 µM) was 90.3% and the viability, T/C (second compound 1 µM, first compound 0.01 µM) was 65.8%. It also gave a viability, T/C [5] of 76.6%, a viability, T/C [6] of 72.4% and a viability, T/C (second compound 3.16 µM, first compound 0.000316 µM) of 78.7%. The viability, T/C (second compound 3.16 µM, first compound 0.001 µM) was 74.4%, the viability, T/C (second compound 3.16 µM, first compound 0.00316 µM) was 81.2% and the viability, T/C (second compound 3.16 µM, first compound 0.01 µM) was 69.9%. For the same compound, the viability, T/C [7] was 61.8%, the viability, T/C [8] was 62.8% and the viability, T/C (second compound 10 µM, first compound 0.000316 µM) was 66.3%. It also gave a viability, T/C (second compound 10 µM, first compound 0.001 µM) of 67.8%, a viability, T/C (second compound 10 µM, first compound 0.00316 µM) of 67.8% and a viability, T/C (second compound 10 µM, first compound 0.01 µM) of 66.1%. The viability, T/C [9] was 63.3% and the viability, T/C [10] was 54.1%.
`Nc1ncn(C2CC(O)C(CO)S2)c(=O)n1` (stereo not given) + CC(CO)NC(=O)c1cc(-c2ccc(Cl)cc2)nn(-c2cnn(C)c2)c1=O showed an IC50 (second compound 0.1 µM) greater than 0.3 µM, an IC50 (second compound 0.316 µM) greater than 0.3 µM and an IC50 (second compound 1 µM) greater than 0.3 µM. For the same compound, the IC50 (second compound 3.16 µM) was greater than 0.3 µM, the IC50 (second compound 10 µM) was greater than 0.3 µM and the viability, T/C (second compound 0.1 µM, first compound 0.000949 µM) was 115%. For the same compound, the viability, T/C (second compound 0.1 µM, first compound 0.003 µM) was 126%, the viability, T/C [11] was 114% and the viability, T/C [12] was 74.6%. The viability, T/C [13] was 84.4%, the viability, T/C [14] was 72.4% and the viability, T/C (second compound 0.316 µM, first compound 0.000949 µM) was 118%. For the same compound, the viability, T/C (second compound 0.316 µM, first compound 0.003 µM) was 130%, the viability, T/C [15] was 134% and the viability, T/C [16] was 88.3%. For the same compound, the viability, T/C [17] was 98.2%, the viability, T/C [18] was 69.8% and the viability, T/C (second compound 1 µM, first compound 0.000949 µM) was 137%. The viability, T/C (second compound 1 µM, first compound 0.003 µM) was 127%, the viability, T/C [19] was 148% and the viability, T/C [20] was 125%. It also gave a viability, T/C [21] of 92.2%, a viability, T/C [22] of 65.5% and a viability, T/C (second compound 3.16 µM, first compound 0.000949 µM) of 87.3%. The viability, T/C (second compound 3.16 µM, first compound 0.003 µM) was 124%, the viability, T/C [23] was 119% and the viability, T/C [24] was 118%. For the same compound, the viability, T/C [25] was 92.6%, the viability, T/C [26] was 76.2% and the viability, T/C (second compound 10 µM, first compound 0.000949 µM) was 105%. For the same compound, the viability, T/C (second compound 10 µM, first compound 0.003 µM) was 106%, the viability, T/C [27] was 136% and the viability, T/C [28] was 107%. It also gave a viability, T/C [29] of 105% and a viability, T/C [30] of 83.4%.
